In US20240317741A1, “NAPHTHYRIDINE DERIVATIVE AS ATR INHIBITOR AND METHOD FOR PREPARING SAME” (WIGEN BIOMEDICINE TECHNOLOGY (SHANGHAI) CO., LTD., priority 2021, published 2024):

System: MIA PaCa-2 cells
Test: In-vitro anti-proliferative activity against MIA PaCa-2 cells
Assay type: cell-based
Conditions: Homo sapiens, 72 h after dosing, intracellular ATP content
Procedure: MIA PaCa-2 cells were seeded on a 384-well plate at 3000 cells/well. After overnight adherence culture, DMSO or the compounds serially diluted 1:5 from 5 μM were added. […] The inhibition percentage of viable cells by the compounds was calculated by comparing with the DMSO group, and the IC50 value was calculated.

Compound | IC50
C[C@@H]1COCCN1c1cc(C(C#N)CCN2CCCC2)c2ccnc(-c3ccn[nH]3)c2n1 (stereo partly drawn) [Compound 18] | 1000 to 5000 nM
C[C@@H]1COCCN1c1cc(C2(C#N)CCN(CCS(C)(=O)=O)CC2)c2ccnc(-c3ccn[nH]3)c2n1 [Compound 80] | < 1000 nM
C[C@@H]1COCCN1c1cc(C2(C#N)CCN(CC(F)F)CC2)c2ccnc(-c3ccn[nH]3)c2n1 [Compound 42] | < 1000 nM
CCC(C#N)c1cc(N2CCOC[C@H]2C)nc2c(-c3ccn[nH]3)nccc12 (stereo partly drawn) [Compound 4] | > 5000 nM
C[C@@H]1COCCN1c1cc(C2(C#N)CCC3(CC3)CC2)c2ccnc(-c3ccn[nH]3)c2n1 [Compound 32] | < 1000 nM
C[C@@H]1COCCN1c1cc(C2(C#N)CCN(C3CCOC3)CC2)c2ccnc(-c3ccn[nH]3)c2n1 (stereo partly drawn) [Compound 73] | < 1000 nM
C[C@@H]1COCCN1c1cc(C2(C#N)CCN(c3ccc(F)cc3)CC2)c2ccnc(-c3ccn[nH]3)c2n1 [Compound 50] | < 1000 nM
C[C@@H]1COCCN1c1cc(C2(C#N)CCC(N3CCOCC3)CC2)c2ccnc(-c3ccn[nH]3)c2n1 (stereo partly drawn) [Compound 65] | < 1000 nM
C[C@@H]1COCCN1c1cc(C2(C#N)CCCCCC2)c2ccnc(-c3ccn[nH]3)c2n1 [Compound 31] | < 1000 nM
C[C@@H]1COCCN1c1cc(C2(C#N)CC2)c2ccnc(-c3ccn[nH]3)c2n1 [Compound 28] | > 5000 nM
C[C@@H]1COCCN1c1cc(C(C#N)C2CCOCC2)c2ccnc(-c3ccn[nH]3)c2n1 (stereo partly drawn) [Compound 22] | 1000 to 5000 nM
C[C@@H]1COCCN1c1cc(C2(C#N)CCC(N)CC2)c2ccnc(-c3ccn[nH]3)c2n1 (stereo partly drawn) [Compound 60] | < 1000 nM
C[C@@H]1COCCN1c1cc(C2(C#N)CCSCC2)c2ccnc(-c3ccn[nH]3)c2n1 [Compound 30] | 1000 to 5000 nM
C[C@@H]1COCCN1c1cc(C2(C#N)CCC(OC3CCC3)CC2)c2ccnc(-c3ccn[nH]3)c2n1 (stereo partly drawn) [Compound 58] | < 1000 nM
C[C@@H]1COCCN1c1cc(C2(C#N)CCC(OC3CCCC3)CC2)c2ccnc(-c3ccn[nH]3)c2n1 (stereo partly drawn) [Compound 59] | < 1000 nM
C[C@@H]1COCCN1c1cc(C2(C#N)CCC2)c2ccnc(-c3ccn[nH]3)c2n1 [Compound 26] | 1000 to 5000 nM
C[C@@H]1COCCN1c1cc(C(C#N)CCN(C)C)c2ccnc(-c3ccn[nH]3)c2n1 (stereo partly drawn) [Compound 17] | 1000 to 5000 nM
C[C@@H]1COCCN1c1cc(C2(C#N)CCN(C3CC3)CC2)c2ccnc(-c3ccn[nH]3)c2n1 [Compound 46] | < 1000 nM
